The subject of data set [1] is SART stressed mouse. Put plainly: Test for analgesic effect (1): SART stressed mouse, modified Randall-Selitto tail pressure method. The class given is in vivo, mouse (ddY strain). As for the experimental part:
Loading of SART (Specific Alternation of Rhythm in Temperature) stress or repetitive cold stress was conducted in accordance with a method of Kita, et al. (Nippon Yakurigaku Zasshi, Vol. 71, pages 195 to 210, 1975). In a constant-temperature vessel for breeding, a breeding environment temperature for male mice of ddY strain was alternately changed at 4° C. and 24° C. every one hour from 10 a.m. until 5 p.m. and kept at 4° C. from 5 p.m. to 10 a.m. of the next morning. Breeding was conducted for 5 days where water and feed were freely taken by the mice so as to load a repetitive cold stress and, after that, the mice were subjected to the test. Before and after 30 minutes from administration of the test substance, analgesic threshold value was measured by a modified Randall-Selitto method (Tail pressure method; Nippon Yakurigaku Zasshi, Vol. 72, pages 573 to 584, 1976). Thus, Using a Randall-Selitto analgesic effect measuring device where a pressing piece was modified for mouse tail, a pressure stimulation was applied at the rate of 16 g/second to the site which was 1.5 cm to the front end from tail root of the mouse and pressurized weight (g) showing an escaping or squeaking reaction was measured and adopted as a pain threshold value. […] A value (analgesic coefficient) where the pain threshold of the test substance administration group was divided by the pain threshold of the SART control group was calculated and the analgesic effect of the test substance was confirmed. Thus, when the test substance had no effect at all, said value was 1.0 and, as the effect became stronger, the value of the analgesic coefficient increased as 1.1, 1.2 and 1.3. Significant difference between the two groups was determined by a statistic processing of the pain threshold values and the analgesic coefficient was calculated as a mean value of the pain threshold values.
As to the test animals, male mice of ddY strain of four weeks age (one group comprised ten mice) were used. The compound of the present invention as a test substance was administered at a dose of 25 ng or 50 ng per mouse into the lateral ventricle whereupon its analgesic effect was measured.
Further, when the Compound 1 of the present invention was intraperitoneally administered (100 μg/kg), the pain threshold value in the SART control group was […] while, in the test substance administration group, it was 97.8 g (analgesic coefficient: 1.24) whereby a significant improving effect for hyperalgesia was noted.

For data set [2], the system named is mice. Put plainly: Test for analgesic effect (4): acetic acid writhing test. Format: in vivo, mouse (ddY strain). To be noted: writhing numbers during 10 minutes. The procedure: The compounds of the present invention were orally administered to mice and a test for an analgesic effect was carried out by means of an acetic acid writhing test. As to the test animals, male mice of ddY strain of four weeks age were subjected to a preliminary breeding and they were used where one group comprised ten mice. Each of the compound of the present invention as a test substance was orally administered (10 mg/kg, 100 mg/kg) in a single dose while, to a control group, distilled water (water for injection) was administered similarly. After 25 minutes from the administration of the test substance, a 0.7% acetic acid/physiological saline was intraperitoneally administered at the dose of 10 mL/kg. From 5 minutes thereafter, writhing numbers during 10 minutes were counted and a suppressive rate for each mouse was calculated according to the following formula. Suppressive Rate(%)=[(Mean writhing numbers of the control group)−(Writhing numbers of each mouse)]÷[Mean writhing numbers of the control group]×100
On the technique in general: An intraperitoneal irritant provokes the stretching counted in writhing tests.

Data set [3] relates to Chung model rat. Put plainly: Test for analgesic effect (2)/(3): Chung model rat, von Frey allodynia measurement. The class given is in vivo, rat (Wistar strain). The following applies: for 50% reaction threshold value, Test substance administration group, Before admin.: baseline before intraperitoneal 400 μg/kg; for 50% reaction threshold value, Test substance administration group, After admin. for 30 minutes: intraperitoneal 400 μg/kg single dose, * P<0.05 Dunnett. As for the experimental part:
A test for analgesic effect was conducted using a Chung model rat which is a neuropathic pain model. As to the test animal, male rats of Wistar strain of nine weeks age were used and model rats were prepared in accordance with the method of Kim and Chung (Pain, vol. 50, pages 355 to 363, 1992). Thus, under anesthetization with pentobarbital (40 mg/kg, intraperitoneal administration), rat L5 spinal nerve was exposed and L5 dorsal root ganglion periphery side was strongly ligated using 5-0 silk yarn. The animals were placed in a transparent acrylate cage whose bottom was made of wire net, a 50% reaction threshold value was calculated by an up-down method using a von Frey filament (manufactured by North Coast Medical Inc.) according to the methods of Chaplan, et al. (J. Neurosci. Method, vol. 53, pages 55 to 63, 1994) and by Lee, et al. (J. Neurophysiol., vol. 81, pages 2226 to 2233, 1999) and measurement of allodynia was conducted. Before injury of spinal nerve, the 50% reaction threshold value was measured twice and the animals where the threshold value was outside the standard were excluded from the operation for spinal nerve injury. […] After 30 minutes from the administration of the test substance, allodynia was measured to calculate a 50% reaction threshold value. With regard to a significance test, Paired t-test was conducted for comparison between before and after the nerve injury and Dunnett's multiple comparison test was used for comparison among multiple groups of the nerve injury control group and the test substance administration group. […] After 30 minutes from administration of the test substance, measurement of allodynia was conducted to calculate the 50% reaction threshold value.

Data set [4] deals with rats. Put plainly: Hyperalgesia in osteoarthritis model induced by monoiodoacetic acid into joints of rats. Format: in vivo, rat. The following applies: oral administration of 1 mg/kg.
The subject of data set [5] is SART stressed mouse. Put plainly: Test for analgesic effect (1): SART stressed mouse, modified Randall-Selitto tail pressure method. Format: in vivo, mouse (ddY strain). The following applies: oral administration, peak after 30 minutes.
Data set [6] concerns mice. Put plainly: Single dose toxicity test by intraperitoneal administration to mice. The class given is in vivo, mouse (ddY strain). The following applies: intraperitoneal 250, 500 and 1,000 mg/kg. The procedure: A single dose toxicity test by intraperitoneal administration of the compounds of the present invention to mice was carried out. Male mice of ddY strain of four weeks age were made into groups of five mice so as to make mean body weight in each group nearly the same. The Compound 1 of the present invention as a test substance was intraperitoneally administered at the doses of 250 mg/kg, 500 mg/kg and 1,000 mg/kg.

Data set [7] deals with rats. Put plainly: Formalin pain test for rats, second phase. The class given is in vivo, rat. The following applies: oral administration of 100 mg/kg.
The mark [8] stands for this setting: 30 minutes after administration.
The mark [9] stands for this setting: 25 ng per mouse into the lateral ventricle, 30 minutes after administration, pain threshold of test group / SART control group.
Where [10] appears, read: 50 ng per mouse into the lateral ventricle, 30 minutes after administration, pain threshold of test group / SART control group.

The values that follow come from US8236844B2, “Histidine derivatives” (Nippon Zoki Pharmaceutical Co., Ltd., priority 2006, dated 2012).

In the case of `NCCC(=O)N[C@@H](Cc1cnc[nH]1)C(=O)O` [carnosine, β-ananyl-L-histidine, reference compound], the “analgesic action (in words)” value in data set [1] (administration into the lateral ventricle) is recorded as “no significant analgesic action”.
For `CC=C(C)C(=O)N[C@@H](Cc1cncn1CC)C(=O)O` [Compound 11, N(α)-2-methyl-2-butenoyl-N(π)-ethyl-L-histidine], the “Suppressive Rate” value in data set [2] (oral 10 mg/kg single dose) stood at 36.1%.
Turning to `C=CC(=O)N[C@@H](Cc1cncn1Cc1ccccc1)C(=O)O` [Compound 27, N(α)-acryloyl-N(π)-benzyl-L-histidine], the “50% reaction threshold value, Test substance administration group, Before admin.” value (“50% reaction threshold value … Before admin.” below) in data set [3] amounted to 2.58 ± 0.26 g. Besides, the “50% reaction threshold value, Test substance administration group, After admin. for 30 minutes” value (from here on “50% reaction threshold value … for 30 minutes”) in data set [3] (setting [8]) is recorded as 7.32 ± 1.32* g. Further, the “Suppressive Rate” value in data set [2] (oral 10 mg/kg single dose) is given as 37.9%.
`CC=CC(=O)N[C@@H](Cc1cncn1CC)C(=O)O` [Compound 4, N(α)-crotonoyl-N(π)-ethyl-L-histidine]: the “Suppressive Rate” value in data set [2] (oral 10 mg/kg single dose) is on record as 32.9%.
With `Cn1cncc1C[C@H](NC(=O)C=Cc1ccccc1)C(=O)O` [Compound 6, N(α)-3-phenylpropenoyl-N(π)-methyl-L-histidine], the “50% reaction threshold value … Before admin.” value in data set [3] was determined as 2.69 ± 0.33 g. The “50% reaction threshold value … for 30 minutes” value in data set [3] (setting [8]) was 6.43 ± 1.52* g. Besides, the “Suppressive Rate” value in data set [2] (oral 100 mg/kg single dose) is 23.5%. This compound had an Analgesic coefficient in data set [1] (setting [9]) of 1.17.
On to `CC=C(C)C(=O)N[C@@H](Cc1cncn1C)C(=O)O` [Compound 7, N(α)-2-methyl-2-butenoyl-N(π)-methyl-L-histidine], for which the “50% reaction threshold value … Before admin.” value in data set [3] stood at 2.71 ± 0.24 g. The “50% reaction threshold value … for 30 minutes” value in data set [3] (setting [8]) is reported as 9.88 ± 1.59* g. For the same compound, the “Suppressive Rate” value in data set [2] (oral 100 mg/kg single dose) was 36.1%. In data set [1] (setting [9]), the Analgesic coefficient came out at 1.31.
Take `CC(C)=CC(=O)N[C@@H](Cc1cncn1C)C(=O)O` [Compound 5, N(α)-3-methylcrotonoyl-N(π)-methyl-L-histidine]: in data set [2] (oral 10 mg/kg single dose), the “Suppressive Rate” value came to 17.8%.
Turning to `CCn1cncc1C[C@H](NC(=O)C=Cc1ccccc1)C(=O)O` [Compound 10, N(α)-3-phenylpropenoyl-N(π)-ethyl-L-histidine], the “Suppressive Rate” value in data set [2] (oral 10 mg/kg single dose) is 27.7%. Also, the Analgesic coefficient in data set [1] (setting [9]) is 1.14.
As for `Cc1ccc(C=CC(=O)N[C@@H](Cc2cncn2C)C(=O)O)cc1` [Compound 16, N(α)-3-(4-methylphenyl)acryloyl-N(π)-methyl-L-histidine], the “Suppressive Rate” value in data set [2] (oral 100 mg/kg single dose) is listed as 30.3%.
As to `C=CC(=O)N[C@@H](Cc1cncn1C)C(=O)O` [Compound 1, N(α)-acryloyl-N(π)-methyl-L-histidine], the “50% reaction threshold value” in data set [3] (intraperitoneal 100 μg/kg single dose, 30 minutes after administration) was determined as 9.60 g. The “anti-allodynia action (in words)” value in data set [3] (oral administration 10 mg/kg, peak after 30 minutes) was “significant anti-allodynia action”. For the same compound, the “ED50 value determined from the improving rate at the peak of the action” value in data set [3] (oral administration, peak after 30 minutes) turned out to be 2.4 mg/kg. Moreover, the “analgesic effect on hyperalgesia (in words)” value in data set [4] is “significant analgesic effect”. In addition, the “Suppressive Rate” value in data set [2] (oral 10 mg/kg single dose) amounted to 33.1%; in data set [2] (oral 100 mg/kg single dose) it was 53.8%. Besides, in data set [5] (3 and 10 mg/kg), the “analgesic action (in words)” value is recorded as “significant analgesic action”. In addition, in data set [5], the “ED50 value determined from the improving rate at peak of action” value is 2.7 mg/kg. In addition, the Analgesic coefficient in data set [1] (setting [9]) amounted to 1.33; in data set [1] (intraperitoneal 100 μg/kg), 1.24. Moreover, in data set [1] (intraperitoneal 100 μg/kg, test substance administration group), the pain threshold value is 97.8 g. The “changes in the body weight compared with the control group” value in data set [6] is recorded as “no significant difference”. Further, the “abnormal observation during the observation period” value in data set [6] (14 days) was “no abnormal observation was noted”. Also, the death result in data set [6] (14 days) is on record as “no death case was noted”. In addition, the “autopsied organs and tissues observed by naked eye” value in data set [6] (after 14 days) is listed as “no abnormal case was found at all”. The “analgesic action against pain reaction in the second phase (in words)” value in data set [7] is listed as “significant analgesic action”.
As for `C=CC(=O)N[C@@H](Cc1cncn1C(C)C)C(=O)O` [Compound 13, N(α)-acryloyl-N(π)-isopropyl-L-histidine], in data set [1] (setting [10]), the Analgesic coefficient is reported as 1.31.
For the compound `C=C(C)C(=O)N[C@@H](Cc1cncn1C)C(=O)O` [Compound 30, N(α)-methacryl-N(π)-methyl-L-histidine], the “50% reaction threshold value … Before admin.” value in data set [3] was found to be 2.63 ± 0.23 g. Also, in data set [3] (setting [8]), the “50% reaction threshold value … for 30 minutes” value is recorded as 4.30 ± 0.46* g.
For `C=CC(=O)N[C@@H](Cc1cncn1CC)C(=O)O` [Compound 2, N(α)-acryloyl-N(π)-ethyl-L-histidine], in data set [3], the “50% reaction threshold value … Before admin.” value came to 2.69 ± 0.39 g. Besides, the “50% reaction threshold value … for 30 minutes” value in data set [3] (setting [8]) was 5.98 ± 0.52* g. The “Suppressive Rate” value in data set [2] (oral 100 mg/kg single dose) is on record as 27.6%. Further, the Analgesic coefficient in data set [1] (setting [10]) came to 1.18.
For `CC=CC(=O)N[C@@H](Cc1cncn1C)C(=O)O` [Compound 3, N(α)-crotonoyl-N(π)-methyl-L-histidine], in data set [1] (setting [9]), the Analgesic coefficient is 1.23.
For `CCn1cncc1C[C@H](NC(=O)C=C(C)C)C(=O)O` [Compound 9, N(α)-3-methylcrotonoyl-N(π)-ethyl-L-histidine], in data set [2] (oral 100 mg/kg single dose), the “Suppressive Rate” value was 38.0%.
